Three compounds from BindingDB's records for doi:10.1016/s0960-894x(98)00660-x (Smithkline Beecham Research Unit, 1999) can be followed below.

SMILES strings stand for the structures.

The target of this assay is V-type proton ATPase (Gallus gallus). Description: Compound was measured for the inhibition of bafilomycin-sensitive ATPase activity in partially purified membrane preparation from chicken osteoclast (cOC).

Usually IC50 stands for the concentration needed to halve the response being measured.

In turn, `CO/C(=C\C=C\c1cc2cc(Cl)c(Cl)cc2[nH]1)C(=O)NC1CC(C)(C)N(C)C(C)(C)C1` [(2Z,4E)-5-(5,6-Dichloro-1H-indol-2-yl)-2-methoxy-penta-2,4-dienoic acid (1,2,2,6,6-pentamethyl-piperidin-4-yl)-amide] returned a half-inhibitory concentration (IC50) of 27 nM. Under `CO/C(=C/C=C/c1cc2cc(Cl)c(Cl)cc2[nH]1)C(=O)NC1CC(C)(C)N(C)C(C)(C)C1` [TCMDC-139097] stands 2360 nM; under `CO/C(=C\C=C/c1cc2cc(Cl)c(Cl)cc2[nH]1)C(=O)NC1CC(C)(C)N(C)C(C)(C)C1` [TCMDC-139106], 663 nM.
